Results as given in ChEMBL document CHEMBL4732190, “Identification of Potent and Long-Acting Single-Chain Peptide Mimetics of Human Relaxin-2 for Cardiovascular Diseases” (J Med Chem, 2021).
≈ marks a conversion by molar mass, not a printed value. *1 amine or outer side, *2 acyl side, *3 side chain or, on linkers, in order; H or OH if unused. Where a SMILES comes first, the peptide text is derived from it. [ ]: non-standard residue; d: D form. The star is where a group is joined. X1 = CCCCCCCCCCCCCCCCC(=O)[C@H](CCC(N)=O)N*; β2hAla(2S) = C[C@@H](CN[*:1])C(=O)[*:2]; hLys = NCCCCC[C@H](N)C(=O)O; Nle = CCCC[C@H](N)C(=O)O; AEEA = NCCOCCOCC(=O)O

Tests used:
[1] = Bioavailability in Sprague-Dawley rat at 3 mg/kg, sc measured upto 72 hrs by LC-HRMS analysis; format: ADME, organism-based; settings: in vivo
[2] = target: T1, Relaxin receptor 1 (Homo sapiens, UniProt Q9HBX9); assay: Agonist activity at RXFP1 endogenously expressed in human OVCAR-5 cells assessed as increase in IBMX-induced cAMP accumulation pretreated with IBMX for 40 mins followed by compound addition and measured after 30 mins in presence of 2 % HSA by HTRF assay; format: functional, cell-based
T1 sequence (Q9HBX9 whole entry): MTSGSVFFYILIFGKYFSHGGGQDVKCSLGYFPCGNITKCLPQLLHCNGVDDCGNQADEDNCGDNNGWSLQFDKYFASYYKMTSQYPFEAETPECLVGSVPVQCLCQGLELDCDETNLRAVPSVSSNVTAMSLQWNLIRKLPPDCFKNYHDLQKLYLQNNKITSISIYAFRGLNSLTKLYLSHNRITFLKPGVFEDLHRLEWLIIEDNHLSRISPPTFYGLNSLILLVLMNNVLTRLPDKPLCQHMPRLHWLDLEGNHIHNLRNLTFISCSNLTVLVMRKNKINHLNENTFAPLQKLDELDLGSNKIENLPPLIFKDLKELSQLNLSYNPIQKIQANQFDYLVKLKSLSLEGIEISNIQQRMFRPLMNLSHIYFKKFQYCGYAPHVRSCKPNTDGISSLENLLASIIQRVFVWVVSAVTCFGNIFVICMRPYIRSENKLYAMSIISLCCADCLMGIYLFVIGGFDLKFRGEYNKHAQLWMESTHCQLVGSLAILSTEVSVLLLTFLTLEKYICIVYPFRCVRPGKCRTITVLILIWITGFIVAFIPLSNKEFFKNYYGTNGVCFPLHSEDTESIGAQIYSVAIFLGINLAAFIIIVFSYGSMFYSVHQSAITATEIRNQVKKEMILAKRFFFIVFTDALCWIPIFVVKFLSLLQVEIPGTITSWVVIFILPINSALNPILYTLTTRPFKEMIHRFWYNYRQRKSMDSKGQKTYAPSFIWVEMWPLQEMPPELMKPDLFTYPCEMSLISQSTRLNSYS

[3] = Stability in rat blood assessed as parent compound at 5 uM remaining after 4 hrs; format: ADME, tissue-based; settings: read-out: Stabilty
[4] = target: T2, Relaxin receptor 1 (Homo sapiens) (UniProt Q9HBX9); assay: Agonist activity at RXFP1 endogenously expressed in human OVCAR-5 cells assessed as increase in IBMX-induced cAMP accumulation pretreated with IBMX for 40 mins followed by compound addition and measured after 30 mins by HTRF assay relative to relaxin; format: functional, cell-based; settings: filed as agonist
T2 sequence (whole entry): T1 sequence (Q9HBX9 whole entry)

[5] = Stability in human blood assessed as parent compound at 5 uM remaining after 4 hrs; format: ADME, tissue-based; settings: read-out: Stabilty
[6] = target: T2, Relaxin receptor 1 (Homo sapiens); assay: Selectivity ratio of EC50 for agonist activity at RXFP1 endogenously expressed in human OVCAR-5 cells in presence of 2 % HSA to EC50 for agonist activity at RXFP1 endogenously expressed in human OVCAR-5 cells in absence of HSA; format: cell-based
[7] = target: T2, Relaxin receptor 1 (Homo sapiens); assay: Agonist activity at RXFP1 endogenously expressed in human OVCAR-5 cells assessed as increase in IBMX-induced cAMP accumulation pretreated with IBMX for 40 mins followed by compound addition and measured after 30 mins in presence of 2 % HSA by HTRF assay relative to control; format: functional, cell-based; settings: filed as agonist
[8] = Half life in Sprague-Dawley rat at 1 mg/kg, iv measured upto 72 hrs by LC-HRMS analysis; format: ADME, organism-based; settings: in vivo
[9] = target: T1, Relaxin receptor 1; assay: Agonist activity at RXFP1 endogenously expressed in human OVCAR-5 cells assessed as increase in IBMX-induced cAMP accumulation pretreated with IBMX for 40 mins followed by compound addition and measured after 30 mins by HTRF assay; format: functional, cell-based
[10] = Aqueous solubility of compound in phosphate buffer at pH 7.4 measured after 24 hrs by UPLC analysis; format: physicochemical
[11] = Positive chronotropic activity in pithed Sprague-Dawley rat assessed as increase in heart rate at 300 microg/kg, iv administered as bolus dose recorded over 60 mins relative to control; format: ADME, organism-based; settings: in vivo, 0.3 mg/kg, 1 h, dose 300 µg/kg
[12] = Stability in rat plasma assessed as parent compound remaining level at 5 uM remaining after 4 hrs; format: ADME, cell-free; settings: read-out: Stabilty
[13] = Aqueous solubility of compound in acetate buffer at pH 4.5 measured after 24 hrs by UPLC analysis; format: physicochemical
[14] = Stability in human plasma assessed as parent compound remaining level at 5 uM remaining after 4 hrs; format: ADME, cell-free; settings: read-out: Stabilty
[15] = target: T3, Relaxin receptor 1 (Rattus norvegicus, UniProt Q6R6I6); assay: Agonist activity at rat RXFP1 expressed in human […] cells assessed as increase in IBMX-induced cAMP accumulation pretreated with IBMX for 40 mins followed by compound addition and measured after 30 mins by HTRF assay; format: cell-based, HEK293
T3 sequence (Q6R6I6 whole entry): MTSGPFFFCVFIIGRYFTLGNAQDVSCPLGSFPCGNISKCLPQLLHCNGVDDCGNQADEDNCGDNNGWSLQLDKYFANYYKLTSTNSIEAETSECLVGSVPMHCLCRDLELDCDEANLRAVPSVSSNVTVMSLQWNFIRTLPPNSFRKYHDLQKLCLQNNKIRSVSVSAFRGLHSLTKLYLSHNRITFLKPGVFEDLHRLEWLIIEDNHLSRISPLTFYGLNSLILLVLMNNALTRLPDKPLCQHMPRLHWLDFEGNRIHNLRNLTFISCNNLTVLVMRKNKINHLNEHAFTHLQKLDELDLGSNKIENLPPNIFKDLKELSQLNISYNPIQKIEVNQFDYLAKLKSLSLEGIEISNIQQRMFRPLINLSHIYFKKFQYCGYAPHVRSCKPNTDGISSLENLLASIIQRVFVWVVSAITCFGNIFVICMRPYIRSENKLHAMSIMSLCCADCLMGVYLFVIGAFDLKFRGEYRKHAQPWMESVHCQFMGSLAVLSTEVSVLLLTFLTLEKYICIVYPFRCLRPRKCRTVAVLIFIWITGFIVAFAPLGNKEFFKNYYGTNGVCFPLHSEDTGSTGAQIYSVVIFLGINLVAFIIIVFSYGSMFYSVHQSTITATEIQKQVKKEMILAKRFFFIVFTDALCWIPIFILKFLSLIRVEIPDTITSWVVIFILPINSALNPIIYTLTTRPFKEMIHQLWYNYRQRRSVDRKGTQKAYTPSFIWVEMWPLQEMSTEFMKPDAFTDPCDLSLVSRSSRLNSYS

[16] = Positive chronotropic activity in pithed Sprague-Dawley rat assessed as increase in heart rate at 1000 mg/kg, iv administered as bolus dose measured after 60 mins post dose; format: ADME, organism-based; settings: in vivo, 1 h
[17] = target: T4, Relaxin receptor 1 (Rattus norvegicus) (UniProt Q6R6I6); assay: Agonist activity at rat RXFP1 expressed in human […] cells assessed as increase in IBMX-induced cAMP accumulation pretreated with IBMX for 40 mins followed by compound addition and measured after 30 mins by HTRF assay relative to control; format: cell-based; settings: HEK293, filed as agonist
T4 sequence (whole entry): T3 sequence (Q6R6I6 whole entry)

Row | SMILES | bioavailability [1] [%] | EC50 [2] [nM] | remaining at 4 h, 5 µM [3] [%] | Emax [4] [%] | remaining at 4 h, 5 µM [5] [%] | Ratio EC50 [6] | Emax [7] [%] | half-life [8] [h] | EC50 [9] [nM] | solubility at 24 h [10] [µg/mL] | Activity [11] [%] | remaining at 4 h, 5 µM [12] [%] | solubility at 24 h [13] [µg/mL] | remaining at 4 h, 5 µM [14] [%] | EC50 [15] [nM] | Emin [16] [%] | Emax [17] [%]
1 | CCCCCCCCCCCCCCCCC(=O)[C@H](CCC(N)=O)NC(=O)[C@H](CCC(=O)O)NC(=O)[C@H](CCC(=O)O)NC(=O)[C@H](CCCCN)NC(=O)COCCOCCNC(=O)COCCOCCNC(=O)COCCOCCNC(=O)[C@H](CCCCCNC(C)=O)NC(=O)[C@H](CCCCN)NC(=O)[C@H](CCCCN)NC(=O)[C@H](CCCNC(=N)N)NC(=O)[C@@H](C)CNC(=O)[C@H](CO)NC(=O)[C@H](Cc1c[nH]c2ccccc12)NC(=O)[C@@H](NC(=O)[C@H](CO)NC(=O)[C@H](CCCCCNC(C)=O)NC(=O)[C@H](CCCCN)NC(=O)[C@H](CCCC)NC(=O)[C@H](CCSC)NC(=O)CNC(=O)[C@H](CCC(=O)O)NC(=O)[C@@H](C)CNC(=O)[C@@H](C)CNC(=O)[C@@H](NC(=O)[C@H](CCCCCNC(C)=O)NC(=O)[C@H](CCCCN)NC(=O)[C@H](C)NC(=O)[C@H](CCCNC(=N)N)NC(=O)[C@@H](NC(=O)[C@H](CCCCN)NC(=O)[C@H](CCC(=O)O)NC(=O)[C@H](CCCNC(=N)N)NC(=O)[C@H](CCC(=O)O)NC(=O)CNC(=O)[C@H](CCC(=O)O)NC(=O)[C@H](CC(C)C)NC(C)=O)C(C)C)[C@@H](C)CC)[C@@H](C)O (Ac-LEGEREKVRAK[hLys](Ac)I[β2hAla(2S)][β2hAla(2S)]EGM[Nle]K[hLys](Ac)STWS[β2hAla(2S)]RKK[hLys](Ac)[AEEA][AEEA][AEEA]KEE-X1) | 47 | 87 | 79 | 80 | 87 | 87 | 96 | 5.7 | 1 | – | – | – | – | – | – | – | –
2 | CCCC[C@H](NC(=O)CNC(=O)[C@H](CCC(=O)O)NC(=O)[C@@H](C)CNC(=O)[C@@H](C)CNC(=O)[C@@H](NC(=O)[C@H](CCC(N)=O)NC(=O)[C@H](C)NC(=O)[C@H](CCCNC(=N)N)NC(=O)[C@@H](NC(=O)[C@H](CCCCN)NC(=O)[C@H](CCC(=O)O)NC(=O)[C@H](CCCNC(=N)N)NC(=O)CNC(=O)[C@H](CCC(=O)O)NC(=O)[C@H](CC(C)C)NC(C)=O)C(C)C)[C@@H](C)CC)C(=O)N[C@@H](CO)C(=O)N[C@H](C(=O)N[C@@H](Cc1c[nH]c2ccccc12)C(=O)N[C@@H](CO)C(=O)NC[C@H](C)C(=O)N[C@@H](CCCNC(=N)N)C(=O)N[C@@H](CCCCN)C(=O)N[C@@H](CCCCN)C(N)=O)[C@@H](C)O (Ac-LEGREKVRAQI[β2hAla(2S)][β2hAla(2S)]EG[Nle]STWS[β2hAla(2S)]RKK-NH2) | – | – | – | 99 | – | – | – | 0.32 | 12 | 2900 (≈ 1050 µM) | 40 | 55 | 3300 (≈ 1190 µM) | 64 | 5.3 | 43 | 83
